# Tests used:
# Format in all cases: in vivo
# [1] = system: corn (Zea mays); test: Test B preemergence
# Procedure, shortened: (§1)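 Visual injury scores, 0 = no effect to 100 = complete control, assigned against controls after 13 to 15 days in the greenhouse. Compounds formulated in non-phytotoxic solvent plus surfactant and applied to soil after planting (pre) or onto foliage of 1- to 4-leaf plants (post).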
# [2] = system: giant foxtail (Setaria faberii); test: Test B preemergence
# Procedure, shortened: as §1
# [3] = system: cocklebur (Xanthium strumarium); test: Test B preemergence
# Procedure, shortened: as §1
# [4] = system: velvetleaf (Abutilon theophrasti); test: Test B preemergence
# Procedure, shortened: as §1
# [5] = system: barnyardgrass (Echinochloa crus-galli); test: Test B preemergence
# Procedure, shortened: as §1
# [6] = system: rice (Oryza saliva); test: Test B preemergence
# Procedure, shortened: as §1
# [7] = system: lambsquarters (Chenopodium album); test: Test B preemergence
# Procedure, shortened: as §1
# [8] = system: morning glory (Ipomoea hederacea); test: Test B preemergence
# Procedure, shortened: as §1
# [9] = system: pigweed (Amaranthus retroflexus); test: Test B preemergence
# Procedure, shortened: as §1
# [10] = system: crabgrass (Digitaria sanguinalis); test: Test B preemergence
# Procedure, shortened: as §1
# [11] = system: Surinam grass (Brachiaria decumbens); test: Test B preemergence
# Procedure, shortened: as §1
# [12] = system: cocklebur (Xanthium strumarium); test: Test C preemergence; settings: for Plant response rating (0 to 100), Cocklebur: visual evaluation after 12 to 14 days
# Procedure, shortened: (§2)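 Response scores (0 no effect to 100 complete control) came from visual comparison with untreated controls 12 to 14 days after treatment. Preemergence application was made to seeded soil; postemergence, to plants at the 1- to 4-leaf stage.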
# [13] = system: common ragweed (Ambrosia elatior); test: Test C preemergence; settings: for Plant response rating (0 to 100), Ragweed, Common: visual evaluation after 12 to 14 days
# Procedure, shortened: as §2
# [14] = system: soybean (Glycine max); test: Test C preemergence; settings: for Plant response rating (0 to 100), Soybean: visual evaluation after 12 to 14 days
# Procedure, shortened: as §2
# [15] = system: Nightshade; test: Test C preemergence
# [16] = system: lambsquarters (Chenopodium album); test: Test C preemergence; settings: for Plant response rating (0 to 100), Lambsquarters: visual evaluation after 12 to 14 days
# Procedure, shortened: as §2
# [17] = system: pigweed (Amaranthus retroflexus); test: Test C preemergence; settings: for Plant response rating (0 to 100), Pigweed: visual evaluation after 12 to 14 days
# Procedure, shortened: as §2
# [18] = system: woolly cupgrass (Eriochloa villosa); test: Test C preemergence; settings: for Plant response rating (0 to 100), Cupgrass, Woolly: visual evaluation after 12 to 14 days
# Procedure, shortened: as §2
# [19] = system: goosegrass (Eleusine indica); test: Test C preemergence; settings: for Plant response rating (0 to 100), Goosegrass: visual evaluation after 12 to 14 days
# Procedure, shortened: as §2
# [20] = system: crabgrass (Digitaria sanguinalis); test: Test C preemergence; settings: for Plant response rating (0 to 100), Crabgrass: visual evaluation after 12 to 14 days
# Procedure, shortened: as §2
# [21] = system: Surinam grass (Brachiaria decumbens); test: Test C preemergence; settings: for Plant response rating (0 to 100), Surinam grass: visual evaluation after 12 to 14 days
# Procedure, shortened: as §2
# [22] = Preemergence, Rate 500 g/ha, scale 0 to 100, 0 no effect, 100 complete control
# [23] = preemergence, Rate 125 g/ha, scale 0 to 100, 0 no effect, 100 complete control
# [24] = Preemergence, Rate 500 g/ha, scale 0 to 100
# [25] = Rate 62 g/ha, scale 0 to 100, 0 no effect, 100 complete control
# [26] = Rate 125 g/ha, scale 0 to 100, 0 no effect, 100 complete control
# [27] = preemergence, Rate 125 g/ha, scale of 0 to 100 where 0 is no effect and 100 is complete control, 13 to 15 days
# [28] = preemergence, Rate 62 g/ha, scale 0 to 100
# [29] = preemergence, Rate 250 g/ha, scale 0 to 100, 0 no effect, 100 complete control
smiles,measurement,setting,value
CC(C)(C)c1ccn(C2SCN(c3cccc(OC(F)(F)F)c3)C2=O)n1 (stereo not shown) [Compound 30],"Plant response rating, Corn",[1]; [22],0
same,"Plant response rating, Corn",[1]; [23],0
same,"Plant response rating, Foxtail, Giant",[2]; [22],100
same,"Plant response rating, Foxtail, Giant",[2]; [23],70
same,"Plant response rating, Cocklebur",[3]; [22],90
same,"Plant response rating, Cocklebur",[3]; [23],0
same,"Plant response rating, Velvetleaf",[4]; [22],40
same,"Plant response rating, Barnyardgrass",[5]; [22],100
same,"Plant response rating, Barnyardgrass",[5]; [23],40
same,"Plant response rating, Rice",[6]; [22],0
same,"Plant response rating, Lambsquarters",[7]; [22],100
same,"Plant response rating, Lambsquarters",[7]; [23],100
same,"Plant response rating, Morningglory",[8]; [22],90
same,"Plant response rating, Pigweed",[9]; [22],100
same,"Plant response rating, Crabgrass",[10]; [22],100
same,"Plant response rating, Crabgrass",[10]; [23],20
same,"Plant response rating, Surinam grass",[11]; [22],60
same,"Plant response rating, Surinam grass",[11]; [23],40
same,"Plant response rating, Cocklebur",[12]; [24],80
same,"Plant response rating, Cocklebur",[12]; [25],0
same,"Plant response rating (0 to 100), Cocklebur","[12]; preemergence, Rate 250 g/ha",0
same,"Plant response rating, Cocklebur",[12]; [23],0
same,"Plant response rating, Ragweed, Common",[13]; [24],100
same,"Plant response rating, Ragweed, Common",[13]; [25],0
same,"Plant response rating (0 to 100), Ragweed, Common","[13]; preemergence, Rate 250 g/ha",90
same,"Plant response rating, Ragweed, Common",[13]; [23],90
same,"Plant response rating, Soybean",[14]; [24],70
same,"Plant response rating, Soybean",[14]; [25],30
same,"Plant response rating (0 to 100), Soybean","[14]; preemergence, Rate 250 g/ha",70
same,"Plant response rating, Soybean",[14]; [23],70
same,"Plant response rating, Nightshade","[15]; Rate 62 g/ha; scale 0 to 100, 0 no effect, 100 complete control",80
same,"Plant response rating, Nightshade",[15]; [26],90
same,"Plant response rating, Nightshade","[15]; Rate 500 g/ha, scale 0 to 100",100
same,"Plant response rating, Lambsquarters",[16]; [24],100
same,"Plant response rating, Lambsquarters",[16]; [25],100
same,"Plant response rating (0 to 100), Lambsquarters","[16]; preemergence, Rate 250 g/ha",100
same,"Plant response rating, Lambsquarters",[16]; [23],100
same,"Plant response rating, Pigweed",[17]; [24],100
same,"Plant response rating, Pigweed",[17]; [25],90
same,"Plant response rating (0 to 100), Pigweed","[17]; preemergence, Rate 250 g/ha",90
same,"Plant response rating, Pigweed",[17]; [23],50
same,"Plant response rating, Cupgrass, Woolly",[18]; [24],100
same,"Plant response rating, Cupgrass, Woolly",[18]; [25],70
same,"Plant response rating (0 to 100), Cupgrass, Woolly","[18]; preemergence, Rate 250 g/ha",90
same,"Plant response rating, Cupgrass, Woolly",[18]; [23],70
same,"Plant response rating, Goosegrass",[19]; [24],100
same,"Plant response rating, Goosegrass",[19]; [25],100
same,"Plant response rating (0 to 100), Goosegrass","[19]; preemergence, Rate 250 g/ha",100
same,"Plant response rating, Goosegrass",[19]; [23],100
same,"Plant response rating, Crabgrass",[20]; [24],100
same,"Plant response rating, Crabgrass",[20]; [25],100
same,"Plant response rating (0 to 100), Crabgrass","[20]; preemergence, Rate 250 g/ha",100
same,"Plant response rating, Crabgrass",[20]; [23],100
same,"Plant response rating, Surinam grass",[21]; [24],60
same,"Plant response rating, Surinam grass",[21]; [25],20
same,"Plant response rating (0 to 100), Surinam grass","[21]; preemergence, Rate 250 g/ha",40
same,"Plant response rating, Surinam grass",[21]; [23],40
COc1cc(N2CCC(n3ccc(C(C)C)n3)C2=O)ccc1Cl (stereo not shown) [Compound 120],"Plant response rating, Corn",[1]; [22],50
same,"Plant response rating, Corn",[1]; [27],20
same,"Plant response rating, Foxtail, Giant",[2]; [22],100
same,"Plant response rating, Foxtail, Giant",[2]; [27],100
same,"Plant response rating, Cocklebur",[3]; [22],40
same,"Plant response rating, Cocklebur",[3]; [27],20
same,"Plant response rating, Velvetleaf",[4]; [22],40
same,"Plant response rating, Velvetleaf",[4]; [27],20
same,"Plant response rating, Barnyardgrass",[5]; [22],100
same,"Plant response rating, Barnyardgrass",[5]; [27],100
same,"Plant response rating, Rice",[6]; [22],30
same,"Plant response rating, Rice",[6]; [27],20
same,"Plant response rating, Lambsquarters",[7]; [22],100
same,"Plant response rating, Lambsquarters",[7]; [27],100
same,"Plant response rating, Morningglory",[8]; [22],100
same,"Plant response rating, Morningglory",[8]; [27],70
same,"Plant response rating, Pigweed",[9]; [22],100
same,"Plant response rating, Pigweed",[9]; [27],100
same,"Plant response rating, Crabgrass",[10]; [22],100
same,"Plant response rating, Crabgrass",[10]; [27],100
same,"Plant response rating, Surinam grass",[11]; [22],100
same,"Plant response rating, Surinam grass",[11]; [27],40
same,"Plant response rating, Cocklebur",[12]; [26],0
same,"Plant response rating, Cocklebur",[12]; [28],0
same,"Plant response rating (0 to 100), Cocklebur","[12]; preemergence, Rate 500 g/ha",30
same,"Plant response rating, Cocklebur",[12]; [29],30
same,"Plant response rating, Ragweed, Common",[13]; [26],100
same,"Plant response rating, Ragweed, Common",[13]; [28],100
same,"Plant response rating (0 to 100), Ragweed, Common","[13]; preemergence, Rate 500 g/ha",100
same,"Plant response rating, Ragweed, Common",[13]; [29],100
same,"Plant response rating, Soybean",[14]; [26],70
same,"Plant response rating, Soybean",[14]; [28],60
same,"Plant response rating (0 to 100), Soybean","[14]; preemergence, Rate 500 g/ha",100
same,"Plant response rating, Soybean",[14]; [29],80
same,"Plant response rating, Nightshade","[15]; Rate 62 g/ha, scale 0 to 100",100
same,"Plant response rating, Nightshade","[15]; Rate 125 g/ha; scale 0 to 100, 0 no effect, 100 complete control",100
same,"Plant response rating, Nightshade","[15]; Rate 250 g/ha, scale 0 to 100, 0 no effect, 100 complete control",100
same,"Plant response rating, Lambsquarters",[16]; [26],100
same,"Plant response rating, Lambsquarters",[16]; [28],100
same,"Plant response rating (0 to 100), Lambsquarters","[16]; preemergence, Rate 500 g/ha",100
same,"Plant response rating, Lambsquarters",[16]; [29],100
same,"Plant response rating, Pigweed",[17]; [26],100
same,"Plant response rating, Pigweed",[17]; [28],100
same,"Plant response rating (0 to 100), Pigweed","[17]; preemergence, Rate 500 g/ha",70
same,"Plant response rating, Pigweed",[17]; [29],50
same,"Plant response rating, Cupgrass, Woolly",[18]; [26],100
same,"Plant response rating, Cupgrass, Woolly",[18]; [28],100
same,"Plant response rating (0 to 100), Cupgrass, Woolly","[18]; preemergence, Rate 500 g/ha",100
same,"Plant response rating, Cupgrass, Woolly",[18]; [29],100
same,"Plant response rating, Goosegrass",[19]; [26],100
same,"Plant response rating, Goosegrass",[19]; [28],100
same,"Plant response rating (0 to 100), Goosegrass","[19]; preemergence, Rate 500 g/ha",100
same,"Plant response rating, Goosegrass",[19]; [29],100
same,"Plant response rating, Crabgrass",[20]; [26],100
same,"Plant response rating, Crabgrass",[20]; [28],100
same,"Plant response rating (0 to 100), Crabgrass","[20]; preemergence, Rate 500 g/ha",100
same,"Plant response rating, Crabgrass",[20]; [29],100
same,"Plant response rating, Surinam grass",[21]; [26],100
same,"Plant response rating, Surinam grass",[21]; [28],90
same,"Plant response rating (0 to 100), Surinam grass","[21]; preemergence, Rate 500 g/ha",100
same,"Plant response rating, Surinam grass",[21]; [29],100
